Results published in patent US12077503B2, “Substituted cyclic amides and their use as herbicides” (FMC CORPORATION, priority 2015, dated 2024).

How the values were obtained:
Assay in all cases: Test C preemergence
Assay type in all cases: in vivo
Details in all cases: scale 0 to 100, 0 no effect, 100 complete control
[1] = tested on: barnyardgrass (Echinochloa crus-galli)
How it was run: (§1)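 Scores of 0 to 100 reflect visual comparison with control plants, where 0 means no effect and 100 complete control, made 13 to 15 d after treatment. Application was preemergence to seeds in loam-sand soil or postemergence to plants 2 to 18 cm tall in peat-based mix, using a surfactant-containing solvent formulation.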

[2] = tested on: blackgrass (Alopecurus myosuroides)
How it was run: as §1

[3] = tested on: oilseed rape (Brassica napus)
How it was run: as §1

[4] = tested on: crabgrass, large (large crabgrass, Digitaria sanguinalis)
How it was run: as §1

[5] = tested on: wheat (winter wheat, Triticum aestivum)
How it was run: as §1

[6] = tested on: lambsquarters (Chenopodium album)
How it was run: as §1

[7] = tested on: foxtail, giant (giant foxtail, Setaria faberii)
How it was run: as §1

[8] = tested on: waterhemp (common waterhemp, Amaranthus rudis)
How it was run: as §1

[9] = tested on: Galium (catchweed bedstraw, Galium aparine)
How it was run: as §1

[10] = tested on: morningglory (Ipomoea coccinea)
How it was run: as §1

corn (Zea mays) = tested on: corn (Zea mays)
How it was run: as §1

[11] = tested on: johnsongrass (Sorghum halepense)
How it was run: as §1

[12] = tested on: velvetleaf (Abutilon theophrasti)
How it was run: as §1

[13] = tested on: ragweed (common ragweed, Ambrosia elatior)
How it was run: as §1

soybean (Glycine max) = tested on: soybean (Glycine max)
How it was run: as §1

[14] = tested on: nutsedge, yellow (yellow nutsedge, Cyperus esculentus)
How it was run: as §1

[15] = tested on: ryegrass, Italian (Italian ryegrass, Lolium multiflorum)
How it was run: as §1

**Q.** Which results are given for O=C1NCC(c2cccc(OC(F)F)c2)C1C(=O)Nc1ccc(F)cc1F (stereo not drawn) [Compound 421]?
**A.** Plant response rating, Barnyardgrass ([1]; 31 g ai/ha): 60; Plant response rating, Barnyardgrass ([1]; 62 g ai/ha): 80; Plant response rating, Barnyardgrass ([1]; 125 g ai/ha): 90; Plant response rating, Barnyardgrass ([1]; 250 g ai/ha): 95; Plant response rating, Blackgrass ([2]; 31 g ai/ha): 40; Plant response rating, Blackgrass ([2]; 62 g ai/ha): 45; Plant response rating, Blackgrass ([2]; 125 g ai/ha): 70; Plant response rating, Blackgrass ([2]; 250 g ai/ha): 70; Plant response rating, Oilseed Rape ([3]; 31 g ai/ha): 10; Plant response rating, Oilseed Rape ([3]; 62 g ai/ha): 25; Plant response rating, Oilseed Rape ([3]; 125 g ai/ha): 30; Plant response rating, Oilseed Rape ([3]; 250 g ai/ha): 35; Plant response rating, Crabgrass, Large ([4]; 31 g ai/ha): 90; Plant response rating, Crabgrass, Large ([4]; 62 g ai/ha): 95; Plant response rating, Crabgrass, Large ([4]; 125 g ai/ha): 90; Plant response rating, Crabgrass, Large ([4]; 250 g ai/ha): 95; Plant response rating, Wheat ([5]; 62 g ai/ha): 0; Plant response rating, Wheat ([5]; 125 g ai/ha): 25; Plant response rating, Wheat ([5]; 250 g ai/ha): 40; Plant response rating, Lambsquarters ([6]; 31 g ai/ha): 10; Plant response rating, Lambsquarters ([6]; 62 g ai/ha): 35; Plant response rating, Lambsquarters ([6]; 125 g ai/ha): 60; Plant response rating, Lambsquarters ([6]; 250 g ai/ha): 70; Plant response rating, Foxtail, Giant ([7]; 31 g ai/ha): 80; Plant response rating, Foxtail, Giant ([7]; 62 g ai/ha): 85; Plant response rating, Foxtail, Giant ([7]; 125 g ai/ha): 85; Plant response rating, Foxtail, Giant ([7]; 250 g ai/ha): 90; Plant response rating, Waterhemp ([8]; 62 g ai/ha): 30; Plant response rating, Waterhemp ([8]; 125 g ai/ha): 80; Plant response rating, Waterhemp ([8]; 250 g ai/ha): 85; Plant response rating, Galium ([9]; 31 g ai/ha): 0; Plant response rating, Galium ([9]; 62 g ai/ha): 0; Plant response rating, Galium ([9]; 125 g ai/ha): 55; Plant response rating, Galium ([9]; 250 g ai/ha): 45; Plant response rating, Morningglory ([10]; 31 g ai/ha): 0; Plant response rating, Morningglory ([10]; 62 g ai/ha): 0; Plant response rating, Morningglory ([10]; 125 g ai/ha): 15; Plant response rating, Morningglory ([10]; 250 g ai/ha): 20; Plant response rating, Corn (corn (Zea mays); 31 g ai/ha): 0; Plant response rating, Corn (corn (Zea mays); 62 g ai/ha): 0; Plant response rating, Corn (corn (Zea mays); 125 g ai/ha): 60; Plant response rating, Corn (corn (Zea mays); 250 g ai/ha): 75; Plant response rating, Johnsongrass ([11]; 31 g ai/ha): 0; Plant response rating, Johnsongrass ([11]; 62 g ai/ha): 0; Plant response rating, Johnsongrass ([11]; 125 g ai/ha): 0; Plant response rating, Johnsongrass ([11]; 250 g ai/ha): 0; Plant response rating, Velvetleaf ([12]; 62 g ai/ha): 20; Plant response rating, Velvetleaf ([12]; 125 g ai/ha): 20; Plant response rating, Velvetleaf ([12]; 250 g ai/ha): 40; Plant response rating, Ragweed ([13]; 31 g ai/ha): 0; Plant response rating, Ragweed ([13]; 62 g ai/ha): 30; Plant response rating, Ragweed ([13]; 125 g ai/ha): 40; Plant response rating, Ragweed ([13]; 250 g ai/ha): 60; Plant response rating, Soybean (soybean (Glycine max); 62 g ai/ha): 0; Plant response rating, Soybean (soybean (Glycine max); 125 g ai/ha): 0; Plant response rating, Soybean (soybean (Glycine max); 250 g ai/ha): 10; Plant response rating, Nutsedge, Yellow ([14]; 31 g ai/ha): 0; Plant response rating, Nutsedge, Yellow ([14]; 62 g ai/ha): 0; Plant response rating, Nutsedge, Yellow ([14]; 125 g ai/ha): 0; Plant response rating, Nutsedge, Yellow ([14]; 250 g ai/ha): 0; Plant response rating, Ryegrass, Italian ([15]; 62 g ai/ha): 40; Plant response rating, Ryegrass, Italian ([15]; 125 g ai/ha): 35; Plant response rating, Ryegrass, Italian ([15]; 250 g ai/ha): 65
